In one series the target is Syk (Homo sapiens (Human), UniProt P43405). The experiment in a line: High Throughput Syk Biochemical Assay (KinEASE TR-FRET). Here is the method:
Syk activity was measured using KinEASE (Cisbio), a time-resolved fluorescence resonance energy transfer (TR-FRET) immunoassay. In this assay, Syk-catalyzes the phosphorylation of a XL665-labeled peptide substrate. Europium conjugated phospho-tyrosine specific antibody binds the resulting phosphorylated peptide. Formation of phosphorylated peptide is quantified by TR-FRET with Europium as the donor and XL665 the acceptor in a 2-step endpoint assay. In brief, test compounds serially diluted in DMSO were delivered into Corning white, low volume, non-binding 384 well plates using the Echo 550 acoustic liquid dispenser (Labcyte®). Syk enzyme and substrates were dispensed into assay plates using a Multi-Flo (Bio-Tek Instruments).
(Time-resolved FRET reads energy transfer from a long-lived donor to a nearby acceptor.)

Series [1] can be described thus: Kinetic solubility in phosphate buffer at pH 7.4. In kind it is physicochemical. Here is the method: The kinetic solubility of compounds in phosphate buffer at pH 7.4 was assessed. The compounds to be tested were dissolved in dimethylsulfoxide at a 10 mM concentration. Stock samples were diluted, 3 μl with 297 μl of the phosphate buffer at pH 7.4 (DulBecco's phosphate buffered saline (Sigma-Aldrich D8662), overall molarity is 0.149M and pH 7.43). The samples were then incubated for 24 hours at 37° C. with shaking, the centrifuged and an aliquot taken and tested relative to a known standard concentration of 0.1 mM.

Another series deals with human hepatocytes. The experiment in a line: Human Hepatocyte Stability Assay. In kind it is in vitro ADME. Conditions: predicted hepatocyte clearance, 1 μM compound. Here is the method:
The human […] stability of the compounds as predicted hepatocyte clearance in L/hr/kg was assessed. Compounds to be tested were diluted to 200 μM (4 μl of 10 mM DMSO stock into 196 μl ACN:H2O (50:50). Propranolol was used as a positive control, and buffer only without hepatocytes as 0% control. These were further diluted 4 μl with 891 μl KHB buffer (InVitroGRO catalog number Z99074) to provide 2× dosing solution. To each well of 24 well plate, 250 μl of the 2× dosing solution was added to each well with 250 μl of hepatocytes cells (1×10^6 viable cells/ml per well) or KHB for control samples to achieve a final compound concentration of 1 μM during incubation. The final solvent concentration was 0.01% DMSO and 0.25% ACN. The culture plate was placed on a rocker and incubated at 37° C., 5% CO2. Samples were collected at time 0, 1, 3, and 6 hours. The loss of parent compound was determined using LC-MS methods against a standard curve.

Setting [2] is: comparison table with known Syk inhibitors.
[3] abbreviates: phosphate buffer, 37 °C, aqueous buffer, kinetic from dmso stock, comparison table, kinetic solubility pH 7.4.
The mark [4] stands for this setting: aqueous buffer, kinetic from dmso stock, kinetic solubility, phosphate buffer pH 7.4, 24 hours at 37° C.
Where [5] appears, read: comparison table, kinetic solubility pH 7.4.

SMILES strings stand for the structures. pIC50: −log10 of the molar value. Values after ≈ are worked out from the molar mass of the structure shown.

Consider `COc1ccc(Nc2nc(-c3cccc(N)c3)cn3ccnc23)cc1OC` [6-(3-aminophenyl)-N-(3,4-dimethoxyphenyl)imidazo[1,2-a]pyrazin-8-amine, reference compound], for which the pIC50 (usually the negative decadic logarithm of the IC50, by convention in mol/L) against Syk (setting [2]) is 6.73. Moreover, the solubility (as a rule, the dissolved amount per volume that the medium holds) at 24 h in series [1] (setting [3]) is 3 µM (≈ 1.08 µg/mL).
The like results for `Cc1ncc(-c2cn3ccnc3c(Nc3ccc(N4CCOCC4)cc3)n2)cc1N` [6-(5-amino-6-methylpyridin-3-yl)-N-(4-morpholinophenyl)imidazo[1,2-a]pyrazin-8-amine, reference compound] were, in that order, 7.80 and 5 µM (≈ 2.01 µg/mL).
On Syk (setting [2]), `Nc1cncc(-c2cn3ccnc3c(Nc3ccc(N4CCOCC4)cc3)n2)c1` [6-(5-aminopyridin-3-yl)-N-(4-morpholinophenyl)imidazo[1,2-a]pyrazin-8-amine, reference compound] gave a pIC50 of 7.51. The amount in solution in series [1] (setting [3]) (solubility at 24 h) came to 5 µM (≈ 1.94 µg/mL).
On the same counts, the results for `COc1ccc(Nc2nc(-c3ccc(N)nc3)cn3ccnc23)cc1OC` [6-(6-aminopyridin-3-yl)-N-(3,4-dimethoxyphenyl)imidazo[1,2-a]pyrazin-8-amine, reference compound] are 7.28 and 10 µM (≈ 3.62 µg/mL).
Take `Cc1ncc(-c2cn3ccnc3c(Nc3ccc(N4CCN(C5COC5)CC4)cc3)n2)nc1N` [Ex.-1, 6-(6-amino-5-methylpyrazin-2-yl)-N-(4-(4-(oxetan-3-yl)piperazin-1-yl)phenyl)imidazo[1,2-a]pyrazin-8-amine]: the pIC50 against Syk (20 μM ATP, 0.015 nM Syk) was 8.21; against Syk (setting [2]) it was 8.21. The solubility at 24 h in series [1] (setting [4]) and in series [1] (setting [5]) was 95 µM (≈ 43.5 µg/mL) in each case. For the same molecule, in the series with human hepatocytes, the “Hheps CL” value was 2 mL/min/kg.
As for `Nc1cncc(-c2cn3ccnc3c(Nc3ccc(N4CCN(C5COC5)CC4)cc3)n2)n1` [Ex.-2, 6-(6-aminopyrazin-2-yl)-N-(4-(4-(oxetan-3-yl)piperazin-1-yl)phenyl)imidazo[1,2-a]pyrazin-8-amine], the solubility at 24 h in series [1] (setting [4]) and in series [1] (setting [5]) was 95 µM (≈ 42.1 µg/mL) each time. Besides, in the series on human hepatocytes, the “Hheps CL” value is 0.917 mL/min/kg.
In the case of `Nc1cncc(-c2cn3ccnc3c(Nc3ccc(N4CCO[C@@H](CO)C4)cc3)n2)n1` [Ex.-3, (R)-(4-(4-((6-(6-aminopyrazin-2-yl)imidazo[1,2-a]pyrazin-8-yl)amino)phenyl)morpholin-2-yl)methanol], the pIC50 against Syk (20 μM ATP, 0.015 nM Syk) was 7.88; on Syk (setting [2]), 7.88. The solubility at 24 h in series [1] (setting [4]) and in series [1] (setting [5]) was 91 µM (≈ 38.1 µg/mL) throughout. In addition, the “Hheps CL” value in the series with human hepatocytes was 1.5 mL/min/kg.
For `Cc1c(-c2cncc(N)n2)nc(Nc2ccc(N3CCN(C4COC4)CC3)cc2)c2nccn12` [Ex.-4, 6-(6-aminopyrazin-2-yl)-5-methyl-N-(4-(4-(oxetan-3-yl)piperazin-1-yl)phenyl)imidazo[1,2-a]pyrazin-8-amine], the pIC50 on Syk (20 μM ATP, 0.015 nM Syk) was 7.36; on Syk (setting [2]), 7.36. Further, the solubility at 24 h in series [1] (setting [4]) and in series [1] (setting [5]) was 100 µM (≈ 45.8 µg/mL) throughout. In the series on human hepatocytes, the “Hheps CL” value is 1.3 mL/min/kg.
On to `Nc1cncc(-c2cn3ccnc3c(Nc3ccc(N4CCN(C5COC5)CC4)c(OCCO)c3)n2)n1` [Ex.-5, 2-(5-((6-(6-aminopyrazin-2-yl)imidazo[1,2-a]pyrazin-8-yl)amino)-2-(4-(oxetan-3-yl)piperazin-1-yl)phenoxy)ethanol], for which the pIC50 is 7.91 on Syk (20 μM ATP, 0.015 nM Syk) and 7.91 at Syk (setting [2]). For the same molecule, the solubility at 24 h in series [1] (setting [4]) and in series [1] (setting [5]) was 97 µM (≈ 48.8 µg/mL) each time. Besides, in the series on human hepatocytes, the “Hheps CL” value is 1.2 mL/min/kg.
As for `Nc1cncc(-c2cn3ccnc3c(Nc3ccc(N4CCN(CC(CO)CO)CC4)cc3)n2)n1` [Ex.-6, 2-((4-(4-((6-(6-aminopyrazin-2-yl)imidazo[1,2-a]pyrazin-8-yl)amino)phenyl)piperazin-1-yl)methyl)propane-1,3-diol], the pIC50 at Syk (20 μM ATP, 0.015 nM Syk) is 7.84; against Syk (setting [2]), 7.84. Further, the solubility at 24 h in series [1] (setting [4]) and in series [1] (setting [5]) was 99 µM (≈ 47.1 µg/mL) each time. The “Hheps CL” value in the series with human hepatocytes was 1.3 mL/min/kg.
`Cc1ncc(-c2cn3ccnc3c(Nc3ccc(N4CCN(C5COC5)CC4)c(OCCO)c3)n2)nc1N` [Ex.-7, 2-(5-((6-(6-amino-5-methylpyrazin-2-yl)imidazo[1,2-a]pyrazin-8-yl)amino)-2-(4-(oxetan-3-yl)piperazin-1-yl)phenoxy)ethanol]: the pIC50 against Syk (20 μM ATP, 0.015 nM Syk) was 8.06; against Syk (setting [2]), 8.06. The “Hheps CL” value with human hepatocytes is 0.83 mL/min/kg.

Values taken from patent US9290505B2, “Substituted imidazo[1,2-a]pyrazines as Syk inhibitors” (Gilead Sciences, Inc., priority 2013, dated 2016).
